According to PMC8286840, “Identifying SARS-CoV-2 antiviral compounds by screening for small molecule inhibitors of Nsp3 papain-like protease” (Biochemical Journal, 2021):
Counter-ions that a name gives are not always drawn. Like-named read-outs stand apart in the source and are kept apart here.

How the values were obtained:
[1] = target: T1, SARS-CoV-2 PLpro (nsp3 1564–1878) (Severe acute respiratory syndrome coronavirus 2, UniProt P0DTD1); assay: biochemical; design: FRET-quenched peptide (Pro3) cleavage by PLpro, 10 min pre-incubation, slope over 20 min, normalised to no-compound control; conditions: read-out: % of control remaining
[2] = target: T1, SARS-CoV-2 PLpro (nsp3 1564–1878); assay: biochemical; design: FRET-quenched peptide (Pro3) cleavage by PLpro, 10 min pre-incubation, slope over 20 min, normalised to no-compound control; conditions: read-out: % of control remaining; remark: listed apart in the source

`O=C1c2cc([N+](=O)[O-])ccc2-n2c1nc1ccccc1c2=O` [GNF-PF-3777] showed a remaining activity at 1.25 µM ([1]; Well no.=8414, low concentration screen) of 88.1%, a remaining activity at 1.25 µM ([1]; Well no.=8695, low concentration screen) of 103% and a remaining activity at 3.75 µM ([2]; Well no.=8414, high concentration screen) of 78.5%. For the same compound, the remaining activity at 3.75 µM ([2]; Well no.=8695, high concentration screen) was 99%.

Work on `O=c1cc(-c2ccccc2)oc2cc(O)ccc12` [7-Hydroxyflavone] yielded a remaining activity at 1.25 µM ([1]; Well no.=3293, low concentration screen) of 97.8% and a remaining activity at 3.75 µM ([2]; Well no.=3293, high concentration screen) of 103%.

For `C[C@@H](c1ncncc1F)[C@](O)(Cn1cncn1)c1ccc(F)cc1F` [Voriconazole], the remaining activity at 1.25 µM ([1]; Well no.=4857, low concentration screen) was 101% and the remaining activity at 3.75 µM ([2]; Well no.=4857, high concentration screen) was 103%.

In the case of `Oc1ccc2c3c1O[C@H]1c4[nH]c5ccccc5c4C[C@@]4(O)[C@@H](C2)N(CC2CC2)CC[C@]314` [Naltrindole (hydrochloride)], the remaining activity at 1.25 µM ([1]; Well no.=7227, low concentration screen) is reported as 103% and the remaining activity at 3.75 µM ([2]; Well no.=7227, high concentration screen) is reported as 97.5%.

`N=C(NCCC[C@H](N)C(=O)O)N[N+](=O)[O-]` [NG-Nitro-L-arginine] gave a remaining activity at 1.25 µM ([1]; Well no.=857, low concentration screen) of 99.8% and a remaining activity at 3.75 µM ([2]; Well no.=857, high concentration screen) of 101%.

`Cc1cnc(NC(=O)c2cc(S(=O)(=O)N(C)C)ccc2N2CCCC2)s1` [NGI-1] was tested, and the remaining activity at 1.25 µM ([1]; Well no.=7684, low concentration screen) was 103% and the remaining activity at 3.75 µM ([2]; Well no.=7684, high concentration screen) was 103%.

With `Cc1nc(Nc2ncc(C(=O)Nc3c(C)cccc3Cl)s2)cc(N2CCN(CCO)CC2)n1` [Dasatinib] the remaining activity at 1.25 µM ([1]; Well no.=2933, low concentration screen) was 101% and the remaining activity at 3.75 µM ([2]; Well no.=2933, high concentration screen) was 97.3%.

`CC(=O)Nc1ccc(OC[C@](C)(O)C(=O)Nc2ccc([N+](=O)[O-])c(C(F)(F)F)c2)cc1` [Andarine (GTX-007)] was tested, and the remaining activity at 1.25 µM ([1]; Well no.=5053, low concentration screen) was 102% and the remaining activity at 3.75 µM ([2]; Well no.=5053, high concentration screen) was 104%.

`C[S+]([O-])CCCN=C=S` (stereo not shown) [Iberin] showed a remaining activity at 1.25 µM [1] of 95.3% and a remaining activity at 3.75 µM [2] of 90.7%.

For `CCOC(=O)c1c(C)n(C)c2ccc(O)cc12` [Mecarbinate], the remaining activity at 1.25 µM ([1]; Well no.=4756, low concentration screen) was 98.2% and the remaining activity at 3.75 µM ([2]; Well no.=4756, high concentration screen) was 95.8%.

Work on `CCCCOCCOc1ccc(-c2ccc3c(c2)/C=C(/C(=O)Nc2ccc([S@@+]([O-])Cc4cncn4CCC)cc2)CCCN3CC(C)C)cc1` [Cenicriviroc Mesylate] yielded a remaining activity at 1.25 µM ([1]; Well no.=8311, low concentration screen) of 99.4% and a remaining activity at 3.75 µM ([2]; Well no.=8311, high concentration screen) of 99.6%.

For `Cc1cc2c(C(C)C)c(O)c(O)c(C=O)c2c(O)c1-c1c(C)cc2c(C(C)C)c(O)c(O)c(C=O)c2c1O` [Gossypol], the remaining activity at 1.25 µM ([1]; Well no.=3325, low concentration screen) was 98.8%, the remaining activity at 1.25 µM ([1]; Well no.=3953, low concentration screen) was 102% and the remaining activity at 3.75 µM ([2]; Well no.=3325, high concentration screen) was 99.3%. For the same compound, the remaining activity at 3.75 µM ([2]; Well no.=3953, high concentration screen) was 98.4%.

`FC(F)c1nc2ccccc2n1-c1nc(N2CCOCC2)nc(N2CCOCC2)n1` [ZSTK474] was tested, and the remaining activity at 1.25 µM ([1]; Well no.=4623, low concentration screen) was 102% and the remaining activity at 3.75 µM ([2]; Well no.=4623, high concentration screen) was 106%.

In the case of `CN1[C@@H]2CC[C@H]1C[C@@H](OC(c1ccccc1)c1ccccc1)C2` [Benztropine (mesylate)], the remaining activity at 1.25 µM ([1]; Well no.=8235, low concentration screen) is reported as 100% and the remaining activity at 3.75 µM ([2]; Well no.=8235, high concentration screen) is reported as 99.9%.

With `COc1cc2cc(c1Cl)N(C)C(=O)C[C@H](OC(=O)[C@H](C)N(C)C(=O)CCSC1CC(=O)N(CC3CCC(C(=O)ON4C(=O)CCC4=O)CC3)C1=O)[C@]1(C)O[C@H]1[C@H](C)[C@@H]1C[C@@](O)(NC(=O)O1)[C@H](OC)/C=C/C=C(\C)C2` (stereo partly shown) [SMCC-DM1] the remaining activity at 1.25 µM ([1]; Well no.=8216, low concentration screen) was 100% and the remaining activity at 3.75 µM ([2]; Well no.=8216, high concentration screen) was 96.4%.

For `Nc1nc2ccc(Cl)cc2c2nc(-c3ccco3)nn12` [CGS-15943], the remaining activity at 1.25 µM ([1]; Well no.=393, low concentration screen) was 104% and the remaining activity at 3.75 µM ([2]; Well no.=393, high concentration screen) was 104%.

Compound `CCN1CCc2nc(N)oc2CC1` [B-HT 933 dihydrochloride] has a remaining activity at 1.25 µM ([1]; Well no.=87, low concentration screen) of 102% and a remaining activity at 3.75 µM ([2]; Well no.=87, high concentration screen) of 105%.

Work on `Cn1cc(C(=O)[C@@H]2CCc3[nH]cnc3C2)c2ccccc21` [Ramosetron (Hydrochloride)] yielded a remaining activity at 1.25 µM ([1]; Well no.=7339, low concentration screen) of 102% and a remaining activity at 3.75 µM ([2]; Well no.=7339, high concentration screen) of 103%.

Compound `CCCN(CCC)C1Cc2cc(OC)c(OC)cc2C1` [U-99194A maleate] has a remaining activity at 1.25 µM ([1]; Well no.=1192, low concentration screen) of 100% and a remaining activity at 3.75 µM ([2]; Well no.=1192, high concentration screen) of 99.6%.

`C#CCC(Cc1cnc2nc(N)nc(N)c2n1)c1ccc(C(=O)N[C@@H](CCC(=O)O)C(=O)O)cc1` (stereo partly shown) [Pralatrexate] was tested, and the remaining activity at 1.25 µM ([1]; Well no.=7550, low concentration screen) was 97%, the remaining activity at 1.25 µM ([1]; Well no.=9172, low concentration screen) was 83.9% and the remaining activity at 3.75 µM ([2]; Well no.=7550, high concentration screen) was 95.8%. It also gave a remaining activity at 3.75 µM ([2]; Well no.=9172, high concentration screen) of 84.5%.

Compound `C[C@@H](O)[C@H]1C(=O)N2C(C(=O)O)=C(S[C@@H]3CN[C@H](C(=O)N(C)C)C3)[C@H](C)[C@H]12` [Meropenem] has a remaining activity at 1.25 µM ([1]; Well no.=1973, low concentration screen) of 103% and a remaining activity at 3.75 µM ([2]; Well no.=1973, high concentration screen) of 103%.

`CCCCCCOc1nsnc1C1=CCCN(C)C1` [Xanomeline (oxalate)] gave a remaining activity at 1.25 µM ([1]; Well no.=8005, low concentration screen) of 103% and a remaining activity at 3.75 µM ([2]; Well no.=8005, high concentration screen) of 100%.

`Fc1ccc(CN(C2=NCCN2)c2c(Cl)cccc2Cl)cc1` [IMID-4F hydrochloride] showed a remaining activity at 1.25 µM ([1]; Well no.=718, low concentration screen) of 96.3% and a remaining activity at 3.75 µM ([2]; Well no.=718, high concentration screen) of 96.8%.

For `c1ccc(C2CN3CCSC3=N2)cc1` (stereo not shown) [Tetramisole hydrochloride], the remaining activity at 1.25 µM ([1]; Well no.=1521, low concentration screen) was 99.3% and the remaining activity at 3.75 µM ([2]; Well no.=1521, high concentration screen) was 100%.

In the case of `CCN1CC(CCN2CCOCC2)C(c2ccccc2)(c2ccccc2)C1=O` (stereo not shown) [Doxapram HCl], the remaining activity at 1.25 µM ([1]; Well no.=5120, low concentration screen) is reported as 98.8% and the remaining activity at 3.75 µM ([2]; Well no.=5120, high concentration screen) is reported as 96.1%.

`CC(C)(C)[C@H]1CC[C@H](N(Cc2ccc(C(=O)NCCC(=O)O)cc2)C(=O)Nc2ccc(OC(F)(F)F)cc2)CC1` [GRA Ex-25] gave a remaining activity at 1.25 µM ([1]; Well no.=6180, low concentration screen) of 103% and a remaining activity at 3.75 µM ([2]; Well no.=6180, high concentration screen) of 106%.

Work on `O=c1c(O)c(-c2ccc(O)cc2O)oc2cc(O)cc(O)c12` [Morin] yielded a remaining activity at 1.25 µM ([1]; Well no.=1022, low concentration screen) of 96.8% and a remaining activity at 3.75 µM ([2]; Well no.=1022, high concentration screen) of 93.4%.

Work on `c1cc2c(cc1[C@H]1OC[C@@H]3[C@H]1CO[C@H]3c1ccc3c(c1)OCO3)OCO2` [(-)-Asarinin] yielded a remaining activity at 1.25 µM ([1]; Well no.=3160, low concentration screen) of 98.8% and a remaining activity at 3.75 µM ([2]; Well no.=3160, high concentration screen) of 101%.

Compound `O=C(Nc1ccncc1)c1cc([N+](=O)[O-])ccc1Cl` [T0070907] has a remaining activity at 1.25 µM ([1]; Well no.=4833, low concentration screen) of 103% and a remaining activity at 3.75 µM ([2]; Well no.=4833, high concentration screen) of 106%.

`CC(=O)c1c(O)c(C)c(O)c(Cc2c(O)c3c(c(C(=O)/C=C/c4ccccc4)c2O)OC(C)(C)C=C3)c1O` [Rottlerin] gave a remaining activity at 1.25 µM ([1]; Well no.=1206, low concentration screen) of 103% and a remaining activity at 3.75 µM ([2]; Well no.=1206, high concentration screen) of 102%.

With `CC(=O)N[C@@H](Cc1ccc(O)cc1)C(=O)O` [N-Acetyl-L-tyrosine] the remaining activity at 1.25 µM ([1]; Well no.=6677, low concentration screen) was 105%, the remaining activity at 1.25 µM ([1]; Well no.=8704, low concentration screen) was 101% and the remaining activity at 3.75 µM ([2]; Well no.=6677, high concentration screen) was 104%. For the same compound, the remaining activity at 3.75 µM ([2]; Well no.=8704, high concentration screen) was 99.9%.

`CC(=O)N[C@H]1CN2CC[C@H](O)[C@@H]2[C@@H](O)[C@@H]1O` [6-Acetamido-6-deoxy-castanospermine] gave a remaining activity at 1.25 µM ([1]; Well no.=3294, low concentration screen) of 97.4% and a remaining activity at 3.75 µM ([2]; Well no.=3294, high concentration screen) of 99.3%.

`O=C1Cc2cc(CCN3CCN(c4nsc5ccccc45)CC3)c(Cl)cc2N1` [Ziprasidone HCl] was tested, and the remaining activity at 1.25 µM ([1]; Well no.=4859, low concentration screen) was 92.1% and the remaining activity at 3.75 µM ([2]; Well no.=4859, high concentration screen) was 93.7%.

With `CCN1C(=O)/C(=C/c2ccccc2)SC1=S` [BTR-1] the remaining activity at 1.25 µM ([1]; Well no.=7124, low concentration screen) was 99.8% and the remaining activity at 3.75 µM ([2]; Well no.=7124, high concentration screen) was 95.2%.
